Where two headings read alike, the source gives them in different places. Non-standard residues stand in square brackets, D forms with d. Residues, ends and D or L forms follow the SMILES beside them. *: point of attachment. Daunorubicin(13-NOCH2CO) = COc1cccc2c1C(=O)c1c(O)c3c(c(O)c1C2=O)C[C@@](O)(C(C)=NOCC(=O)*)C[C@@H]3O[C@H]1C[C@H](N)[C@H](O)[C@H](C)O1; pGlu = O=C1CC[C@@H](C(=O)O)N1; Butyryl = CCCC(=O)*
How the values were obtained:
[1] = test system: HT-29 human colon cancer cell line; assay: In vitro cytostatic effect, alamarBlue assay, HT-29; type: cell-based; details: HT-29, 10 µM
Description: (§1) Cell lines often function as the first model system of choice to study biological processes or to test the efficiency of drugs or drug conjugates and their cytotoxic effects. Immortal cell lines offer various benefits, for instance they are easy to handle, cost-effective and provide consistent sample and reproducible results. Nevertheless, cell lines also present the disadvantage that after a period of continuous growth, cell characteristics can change and dedifferentiate in culture. The serial passaging can cause genotypic and phenotypic variations and the state of confluency can also affect gene expression pattern in some cell lines. Due to this, the usage of internal standards during the evaluation of new potential candidates might be necessary to ensure comparability with previous results. The cytostatic effect of the novel GnRH-III bioconjugates was determined on HT-29 human colon cancer and MCF-7 human breast cancer cell lines by alamarBlue® assay. For a better comparison, the well-studied bioconjugates GnRH-III–[^8Lys(Dau=Aoa)] (K1) and GnRH-III–[^4Lys(Bu), ^8Lys(Dau=Aoa)] (K2) were used as positive controls and internal standards. The corresponding IC50 values were calculated by using nonlinear regression (sigmoidal dose response) (Figure 3, Table 2). Unfortunately, the D-Trp containing compounds 3 and 6 started to precipitate in both cell culture media at higher concentrations limiting the concentration down to a maximum of 10 µM. This effect could not be prevented by using DMSO instead of ddH2O for the preparation of the stock solutions. Unfortunately, the lower concentration range with a maximum of 10 µM was not sufficient to achieve the dose-response. […] Nevertheless, the replacement of ^6Asp by D-Asp, D-Glu or D-Trp led to a decreased cytostatic effect on the estimated cancer cell lines.
(§2) MCF-7 human breast adenocarcinoma cells were cultured in Dulbecco’s Modified Eagle Medium (DMEM, Lonza, Basel, Switzerland), supplemented with 10% (v/v) fetal bovine serum (FBS, Lonza), L-glutamine (2 mM, Lonza), non-essential amino acids (NEAA, Sigma-Aldrich Kft), sodium pyruvate (1 mM, Lonza) and penicillin-streptomycine (Lonza). […]
(§3) Cells were seeded to 96-well plates (Sarstedt, Nümbrecht, Germany, 5 × 10^3 cells/well) one day prior to the treatment in complete cell medium. […] Fluorescence was detected using Synergy H4 multi-mode microplate reader (BioTek, Winooski, VT, USA), excitation and emission wavelengths were set to 570 and 620 nm, respectively. Cytostasis was measured using 4 parallels, each experiment was repeated twice. Cytostatic effect (and IC50 values) were calculated by using nonlinear regression (sigmoidal dose response) with Origin Pro8 (OriginLab Corp., Northampton, MA, USA.).

[2] = Degradation in rat liver lysosomal homogenate (LC-MS); type: in vitro ADME; details: rat liver lysosomal homogenate, 37 °C, pH 5
Procedure: In order to gain insight into the cellular release of the drug, the degradation of the Dau–GnRH-III derivatives 1–6, K1 and K2 was determined in the presence of rat liver lysosomal homogenate at 37 °C. […] However, the degradation level and the cleavage sites within the GnRH-III sequence differ considerably depending on the incorporated amino acids, whereby the hydrolyses of the C-terminus (H-Gly-NH2 and H-Pro-Gly-NH2) occurred first in all eight GnRH-III derivatives. Due to the high chemical and enzymatic stability of the oxime bond, no free Dau was detected by LC–MS. In accordance with our previous results, the digestion of the two peptides containing L-Asp in position 6 (K1, K2) provided the smallest Dau-containing metabolite (H-Lys(Dau=Aoa)-OH, m/z 729.36 [M + H]^+). This metabolite could already be detected after 1 hour of incubation in case of K2 and after 2 hours in case of K1. […] It might be assumed that D-Trp of GnRH-III–[^4Lys(Bu), ^6D-Tpr, ^8Lys(Dau=Aoa)] (6) is also accepted at the cleavage site, but due to the prior hydrolysis of the ^7Trp-^8Lys(Dau=Aoa)-bond an evidential fragment has not been detected. A reason for these diversities might be the subsite specificities of the lysosomal proteases. For instance, lysosomal cysteine proteases also known as cathepsins show a broad substrate specificity. […] For instance, the analyzed fragments of the ^6L-Asp derivatives gave clear hints for the presence of endopeptidases, while the digestion of the ^6D-Aaa compounds 1–3 gave only fragments which evidence the activity of exomono- and/or dipeptidases. Moreover, the obtained results for the bioconjugates that contain ^4Lys(Bu) (K2, 4–6) instead of serine indicate a proteolytic cleavage by lysosomal endopeptidases, which might be of great importance for the release of the smallest Dau-containing metabolite.
The rat liver lysosomal homogenate was prepared as previously described. The protein concentration was determined by Qubit Protein Assay Kit according to the manufacturer’s protocol (ThermoFisher Scientific, Waltham, MA, USA). The bioconjugates were dissolved in ddH2O to a concentration of 5 µg/µL. The reaction was carried out in 0.2 M NaOAc buffer (pH 5), with an identical concentration of bioconjugate and rat liver lysosomal homogenate (0.25 µg/µL). The reaction mixtures were incubated at 37 °C and aliquots of 15 µL were taken at 5 min, 1 h, 2 h, 4 h, 8 h and 24 h and quenched with 2 µL of acetic acid. The analysis of the samples was performed by LC–MS.

[3] = test system: MCF-7 human breast cancer cell line; assay: In vitro cytostatic effect, alamarBlue assay, MCF-7; type: cell-based; details: MCF-7, 10 µM
Description: as §1, §2, §3

[4] = set-up: method as in PMID 20953647, PMID 21668011; details: 90% human serum, 37 °C; ref [26],[38]; cited from earlier work
trypsin = test system: trypsin; set-up: method as in PMID 20953647, PMID 21668011; details: 37 °C; ref [26],[38]; cited from earlier work
GnRH-RI [5] = target: T1, GnRH-RI (Homo sapiens, UniProt P30968); set-up: human prostate cancer cells were obtained from a patient at the time of initial surgical treatment; from tissue; host or cells: human prostate cancer specimen from a patient (surgery); membrane homogenate; method as in PMID 22967796, PMID 25908176; details: human prostate cancer tissue; ref [29],[50]; read-out: IC50 prostate cancer (reported values); cited from earlier work
T1 sequence (P30968 1-328): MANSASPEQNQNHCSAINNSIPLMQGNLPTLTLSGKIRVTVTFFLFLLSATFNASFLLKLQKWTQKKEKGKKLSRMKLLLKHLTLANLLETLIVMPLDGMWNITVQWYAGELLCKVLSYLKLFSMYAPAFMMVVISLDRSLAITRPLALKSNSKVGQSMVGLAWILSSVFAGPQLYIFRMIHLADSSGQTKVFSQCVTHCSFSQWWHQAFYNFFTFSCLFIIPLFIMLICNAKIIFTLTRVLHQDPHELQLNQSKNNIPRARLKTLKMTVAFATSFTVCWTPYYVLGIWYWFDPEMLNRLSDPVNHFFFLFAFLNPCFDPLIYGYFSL

GnRH-RI [6] = target: T1, GnRH-RI; set-up: method as in PMID 22967796, PMID 25908176; details: human pituitary tissue; ref [29],[50]; read-out: IC50 pituitary (reported values); cited from earlier work
GnRH-receptor = test system: GnRH-receptor; set-up: method as in PMID 10647698, PMID 20859992; details: 1 pM to 1 µM; ref [51]–[52]; cited from earlier work

COc1cccc2c1C(=O)c1c(O)c3c(c(O)c1C2=O)C[C@@](O)(C(C)=NOCC(=O)NCCCC[C@H](NC(=O)[C@H](Cc1c[nH]c2ccccc12)NC(=O)[C@@H](Cc1c[nH]c2ccccc12)NC(=O)[C@H](Cc1c[nH]cn1)NC(=O)[C@H](CO)NC(=O)[C@H](Cc1c[nH]c2ccccc12)NC(=O)[C@H](Cc1c[nH]cn1)NC(=O)[C@@H]1CCC(=O)N1)C(=O)N1CCC[C@H]1C(=O)NCC(N)=O)C[C@@H]3O[C@H]1C[C@H](N)[C@H](O)[C@H](C)O1 [compound 3, [6D-Trp, 8Lys(Dau=Aoa)]] ([pGlu]HWSH[dW]WK(Daunorubicin(13-NOCH2CO))PG-NH2)
cell viability at the highest concentration [1]: 58%
incubation time after which the smallest Dau-containing metabolite H-Lys(Dau=Aoa)-OH was detected [2]: 4 h
cell viability at the highest concentration [3]: 69%

CCCC(=O)NCCCC[C@H](NC(=O)[C@H](Cc1c[nH]c2ccccc12)NC(=O)[C@H](Cc1c[nH]cn1)NC(=O)[C@@H]1CCC(=O)N1)C(=O)N[C@@H](Cc1c[nH]cn1)C(=O)N[C@H](Cc1c[nH]c2ccccc12)C(=O)N[C@@H](Cc1c[nH]c2ccccc12)C(=O)N[C@@H](CCCCNC(=O)CON=C(C)[C@]1(O)Cc2c(O)c3c(c(O)c2[C@@H](O[C@H]2C[C@H](N)[C@H](O)[C@H](C)O2)C1)C(=O)c1c(OC)cccc1C3=O)C(=O)N1CCC[C@H]1C(=O)NCC(N)=O [compound 6, GnRH-III–[^4Lys(Bu), ^6D-Tpr, ^8Lys(Dau=Aoa)]] ([pGlu]HWK(Butyryl)H[dW]WK(Daunorubicin(13-NOCH2CO))PG-NH2)
cell viability at the highest concentration [1]: 55%
incubation time after which the smallest Dau-containing metabolite H-Lys(Dau=Aoa)-OH was detected [2]: 2 h
cell viability at the highest concentration [3]: 53%

GnRH-III–[^4Lys(Ac), ^8Lys(Dau=Aoa)]
time stable in human serum [4]: at least 24 h
time stable in trypsin (trypsin): at least 24 h

GnRH-II–[D-Lys^6(Dau=Aoa)] (QHWSHKWYPG; N-terminal pyroglutamate (from Gln1); D-Lys at position 6, with daunorubicin oxime-linked through aminooxyacetyl on its epsilon-amine (Dau=Aoa); C-terminal amide; Decapeptide limits by convention (mat) [earlier reported daunorubicin–GnRH-II conjugate]
IC50 (GnRH-RI [5]): 2.1 nM
IC50 (GnRH-RI [6]): 4.2 nM

bombesin
displacement of [125I]-triptorelin (GnRH-receptor): could not inhibit the receptor binding

buserelin
displacement of [125I]-triptorelin (GnRH-receptor): displaced [^125I]-triptorelin completely

cetrorelix
displacement of [125I]-triptorelin (GnRH-receptor): displaced [^125I]-triptorelin completely

somatostatin-14
displacement of [125I]-triptorelin (GnRH-receptor): could not inhibit the receptor binding

Source: article PMC5905287, “Synthesis and in vitro biochemical evaluation of oxime bond-linked daunorubicin–GnRH-III conjugates developed for targeted drug delivery” (Beilstein Journal of Organic Chemistry, 2018)
